Results: US8729053B2, “Nuclear factor kappa B pathway inhibitor composition and use of same” (The United States of America, as represented by the …, priority 2008, dated 2014)
“Also recorded” adds a separate entry of the source. Counter-ions that a name gives are not always drawn.

Tests used:
Format in all cases: cell-based
[1] = test system: MCF-7, T47D, and MDA-MB-231 breast cancer cell lines; assay: Matrigel invasion assay
Method: Breast cancer cell lines, MCF-7, T47D, and MDA-MB-231 were used to measure the effect of compound I on TPA-induced invasion activity using Matrigel Invasion Chamber (BD Bioscience, San Jose, Calif.) according to the manufacturer's protocol. Matrigel-coated chambers containing an 8 μm pore size filter were fitted into a 24-well tissue culture plate. Briefly, breast cancer cells (1×10^5 cells/ml) of each cell line were seeded into […] Matrigel-coated chambers with DMSO, TPA, or TPA plus compound I conditions and incubated for 24 hrs. The media wells for each plate contained only standard growth medium. After 24 hrs the non-invading cells were removed from the upper side of the chamber by cotton tipped applicators. The invaded cells on the bottom side were stained using Diff-Quik staining (Dade Behring, Deerfield, Ill.) and photographed. Three independent results were very similar.
In order to evaluate the potential therapeutic activity of the compound, tests for the biological activity of compound I were performed. […] Following anchorage-independent colony induction in TPA-treated cells without or with compound I, colonies were lysed and measured with CyQuant GR Dye to detect DNA by fluorescence plate reader as a measure of colony count. Total transformed colony numbers were calculated from RFU and cell dose curve of JB6 cells. […]

[2] = test system: SRE (Serum response element); assay: SRE luciferase reporter assay in HEK293 cells; details: HEK293, TPA 10 ng/ml 18 hours
Method: All expression plasmids were transiently transfected into HEK293 cells in a 96-well plate (0.1 μg/well) by using Effectene transfection reagent (Qiagen, Valencia, Calif.) according to the manufacturer's manual. HEK293 cells were maintained in Dulbecco's modified Eagle medium (Sigma, St. Louis, Mo.) supplemented with 10% fetal bovine serum (Atlanta Biologicals, Lawrenceville, Ga.) and incubated at 37° C. in a 5% CO2 incubator. After 24 hrs incubation, the medium was changed to DMEM with 0.2% FBS, and the transfectants were exposed to various concentrations of compound I and TPA (10 ng/ml). Cells were lysed with passive lysis buffer and the luciferase assay was performed using the Firefly-Luciferase reporter assay system (Promega, Madison, Wis.) and MLX Luminometer (Dynex Technology, Chantilly, Va.).
Three different luciferase reporter genes, AP-1 reporter containing four times TRE consensus originated from GCN4 and SRE reporter purchased from Stratagene (La Jolla, Calif.) respectively are as described previously (Suzukawa et al., Environ. Health Perspect., 2002, 110, 865-70). NFκB reporter is driven by five times NFκB responsive element inserted into Cis-reporter backbone (Stratagene, La Jolla, Calif.). […]

NFκB = assay: EMSA of NFκB DNA binding, HEK293 nuclear fractions
Method: EMSA was performed with the nuclear fraction of HEK293 cell using LightShift Chemiluminescent EMSA Kit (Pierce Biotechnology, Rockford, Ill.) according to the manufacture's instruction. Oligonucleotides for NFκB, NF-1, and AP-1 were labeled with biotin by Biotin 3′ End DNA labeling Kit (Pierce Biotechnology, Rockford, Ill.). The quantified 15 μg of nuclear extracts were incubated for 20 mins with 1 μg/μl Poly (dI.dC), biotin end-label target nucleotides in 20 μl binding buffer DNA-protein complexes were fractionated on 6% a polyacrylamide gel and transferred to a nylon membrane. The membranes were processed to detect biotin-label DNA by cross-linking, blocking, and detection incubations. Results were obtained by X-ray film exposure for 10 sec and development. The target sequences of oligonucleotides for NFκB, NF-1, and AP-1 are as follows;
To determine whether the effect of compound I on nuclear translocation of NFκB leads to inhibited binding of NFκB proteins to DNA, EMSA in HEK293 cells was performed. […] TPA-induced binding complex was attenuated by pretreatment with compound I in a dose-dependent manner (lanes 5-9). This binding inhibition parallels the inhibition of luciferase reporter transactivation and inhibition of nuclear translocation of NFκB proteins. The TPA-induced binding complex disappeared when the labeled NFκB oligonucleotide was competed with an excess of unlabelled probe (90× fold).

NFκB DNA binding (NFκB; concentrations as low as 1.1 μM): repressed
TPA-induced NFκB DNA binding complex, dose-dependent manner (NFκB; lanes 5-9, 1 hour pretreatment, TPA 18 hours): attenuated
TPA-induced NFκB DNA binding complex (NFκB; pretreatment at 17 μM): marked loss of binding complex
Compound: Cc1cc(N)ccc1N=Nc1ccc(S(=O)(=O)CCOS(=O)(=O)O)cc1 [compound I, 2-(4-((4-amino-2-methylphenyl)diazenyl)phenylsulfonyl)ethyl hydrogen sulfate]
Basal invasive activity ([1]; MBA-MB-231 cells): completely inhibited
TPA-increased invasion ([1]; three breast cancer cell lines, 24 hrs): completely inhibited; also recorded: inhibits
TPA-induced SRE luciferase activity [2]: repressed but to a lesser degree than AP-1
